As a reminder, the T/C is the ratio of treated to control.

Consider eight molecules from patent publication US7109341B2, “Therapeutic amides” (Wayne State University, priority 2002, dated 2006).

Several values for one entry are separate records, joined by “and”; a condition that tells them apart may be missing. Equal values may be shown once. Read-outs that look alike come from different tables or passages of the source.

Data set [1] deals with Mammary Adenocarcinoma 17/ADR. The data set is described as follows: Evaluation against early stage Mammary Adenocarcinoma 17/ADR, C3H/He females (Table 3). The class given is in vivo. To be noted: for % Body Wt Loss at Nadir / % T/C mass / Day of Nadir / Drug Deaths / Growth Delay / Log Kill / Median Tumor Mass on Day 9 (Range) / Tumor Free day-21 / Activity Rating: PO.
Data set [2] relates to Pancreatic Ductal Adenocarcinoma 03. The data set is described as follows: Evaluation against early stage Pancreatic Ductal Adenocarcinoma 03 in female BDF1 mice (Table 4). Format: in vivo, mouse. The source says:
The higher dose requirement for compound 14e may be a disadvantage over compound 11b (Cage 14).

The subject of data set [3] is Mammary Adenocarcinoma 16/C. To be noted: Cage 2, IV, BID 1–5, total 600 mg/kg. The source says:
Table 7. […] The animal was then re-implanted with Mam16/C/71.

Data set [4] has as its system Pancreatic Adenocarcinoma 03. Kind of data set: Evaluation against early stage Pancreatic Adenocarcinoma 03 in BDF1 male mice (Table 1). The class given is in vivo, mouse. To be noted: PO, QD3–6, 9–11, BID 7–8.
Data set [5] relates to Pancreatic Ductal Adenocarcinoma #03.
Text: Pancreatic ductal adenocarcinoma-03, mammary adenocarcinoma-16/C, mammary adenocarcinoma-17/Adr, and human melanoma LOX were used in the studies. Tumors were maintained in the mouse strain of origin (C57B1/6 for Panc-03 and C3H for the mammary tumors). Balb/c SCID mice (B and T cell deficient) were used for tumor maintenance and chemotherapy trials involving the human melanoma LOX. Tumors were transplanted into the appropriate F1 hybrid (B6D2F1=C57B 1/6 female× DBA/2 male) or the strain of origin for the chemotherapy trials. Individual mouse body weights for each experiment were within 5 grams, and all mice were over 17 grams at the start of therapy. The mice were supplied food and water ad libitum.
Animals were pooled, implanted subcutaneously with 30 to 60 mg tumor fragments by a 12 gauge trocar on day 0, and again pooled before unselective distribution to the various treatment and control groups. For early stage treatment, chemotherapy was started within 1 to 3 days after tumor implantation while the number of cells was relatively small (10^7 to 10^8 cells). For upstaged or advanced staged trials, the tumors were allowed to grow for five or more days before treatment was started. Tumors were measured with a caliper twice weekly. […] Tumor weights are estimated from two-dimensional measurements:
Tumor weight (in mg)=(a×b^2)/2, where a and b are the tumor length and width in (mm), respectively.
a) Tumor growth delay (T−C value), where T is the median time (in days) required for the treatment group tumors to reach a predetermined size (e.g., 1,000 mg), and C is the median time (in days) for the control group tumors to reach the same size. Tumor-free survivors were are excluded from these calculations (cures are tabulated separately). This value is an important criterion of anti-tumor effectiveness because it allows the quantification of tumor cell kill.
b) Calculation of tumor cell kill for subcutaneously (SC) growing tumors. […] The conversion of the T−C values to log10 cell kill is possible because the Td of tumors re-growing post treatment (Rx) approximates the Td values of the tumors in untreated control mice.
In selected cases, both for historic in vivo evaluation data as well as data presented here, it is of value to compare log kill numbers from trials of markedly different testing schedules. […] It should be noted that an activity rating of +++ to ++++ is needed to effect partial regression (PR) or complete regression (CR) of 100 to 300 mg size masses of most transplanted solid tumors of mice. Thus, an activity rating of + or ++ would not be scored as active by usual clinical criteria. A PR is a reduction in tumor mass to less than 50% of pretreatment size. A CR is a reduction in tumor mass to below palpable size (i.e., reduction to zero detectable mass).
The T/C value in percent is an indication of anti-tumor effectiveness: A T/C=0% means no tumor growth. A T/C=100% means no anti-tumor activity, i.e., the treated and control tumors grew equally. […] A T/C value<10% is considered to indicate highly significant anti-tumor activity, and is the level used by NCI to justify a clinical trial if toxicity, formulation, and certain other requirements are met (termed DN-2 level activity).
Compounds as their sodium salts were prepared in a 1% sodium bicarbonate solution, H2O or phosphate buffered saline (PBS), with pH adjusted to 7.0 to 7.5 with HCl, and administered intravenously (IV) or orally (PO), at injection volumes of 0.2 mL per injection.
The subject of the next data set is Human Melanoma LOX. Conditions: Cage 3; IV; qd 1–6, BID 7; total 700 mg/kg.
Setting [6] is: Cage 5, 145 mg/kg/inj QD-1–3 and 7–9, total 870 mg/kg.
[7] abbreviates: Cage 6, 90 mg/kg/inj QD-1–3 and 7–9, total 540 mg/kg.
Where [8] appears, read: Cage 7, 55.8 mg/kg/inj QD-1–3 and 7–9, total 334.8 mg/kg.
The mark [9] stands for this setting: Cage 8, 34.6 mg/kg/inj QD-1–3, 145 mg/kg/inj QD-7–9, total 538.8 mg/kg.
Setting [10] is: Cage 2, PO, 120 mg/kg/inj 2×/day days 3–9, total 1680 mg/kg.
Where [11] appears, read: Cage 3, PO, 60 mg/kg/inj 2×/day days 3–9, total 840 mg/kg.
Setting [12] is: Cage 4, PO, 30 mg/kg/inj 2×/day days 3–9, total 420 mg/kg.
[13] abbreviates: IV, short, dose-intense schedule BID-1–3, 162 mg/kg total dose.
Setting [14] is: Cage 3, IV-SC, qd 3–5, 8–11, BID 6, 7, total 780 mg/kg.
The mark [15] stands for this setting: Cage 4, IV-SC, qd 3–5, 8–11, BID 6, 7, total 390 mg/kg.
Where [16] appears, read: Cage 5, IV, qd 3, 4, total 30 mg/kg.
[17] abbreviates: Cage 14, IV, 48 mg/kg/inj QD 3–9, total 336 mg/kg.

`COc1c(Cl)ccc2ncc(Oc3ccc(OC(C)C(=O)N(C)C)cc3)nc12` (stereo not drawn) [Compound 14c]: in data set [1] (setting [6]), the “% Body Wt Loss at Nadir” value is −5.8%, the “% T/C mass” value is on record as 20%, the “Day of Nadir” value came to 9 days and the “Drug Deaths” value is given as 0/5. Moreover, in data set [1] (setting [6]), the “Growth Delay” value is 5.5 days, the “Log Kill” value is on record as 1.5, the “Median Tumor Mass on Day 9 (Range)” value is listed as 243 and the “Tumor Free day-21” value is on record as 0/5. Besides, in data set [1] (setting [7]), the “% Body Wt Loss at Nadir” value was “+1.4%”, the “% T/C mass” value is on record as 31%, the “Activity Rating” value was “++ (1.3–1.9)” and the “Day of Nadir” value was found to be 9 days. Further, in data set [1] (setting [7]), the “Drug Deaths” value is 0/5, the “Growth Delay” value is 5.0 days, the “Log Kill” value amounted to 1.4 and the “Median Tumor Mass on Day 9 (Range)” value stood at 369. The “Tumor Free day-21” value in data set [1] (setting [7]) is reported as 0/5. In data set [1] (setting [8]), the “% Body Wt Loss at Nadir” value was “+0.0%”, the “% T/C mass” value came to 31%, the “Activity Rating” value is on record as “+ (0.7–1.2)” and the “Day of Nadir” value was 9 days. Also, in data set [1] (setting [8]), the “Drug Deaths” value is 0/5, the “Growth Delay” value stood at 3.5 days, the “Log Kill” value amounted to 1.0 and the “Median Tumor Mass on Day 9 (Range)” value came to 368. Moreover, the “Tumor Free day-21” value in data set [1] (setting [8]) is 0/5. In data set [1] (setting [9]), the “% Body Wt Loss at Nadir” value is −1.4%, the “% T/C mass” value was determined as 55%, the “Activity Rating” value is “+ (0.7–1.2)” and the “Day of Nadir” value was 11 days. Besides, in data set [1] (setting [9]), the “Drug Deaths” value was 0/5, the “Growth Delay” value turned out to be 3.3 days, the “Log Kill” value was 0.9 and the “Median Tumor Mass on Day 9 (Range)” value was 660. The “Tumor Free day-21” value in data set [1] (setting [9]) is given as 0/5.
With `CC(Oc1ccc(Oc2ccc3ccc(Cl)cc3n2)cc1)C(=O)N(C)C` (stereo not drawn) [Compound 14e, 2-{4-((7-Chloro-2-quinolinyl)oxy)phenoxy}propiondimethylamide], in data set [2] (setting [10]), the “% Body Wt Loss at Nadir” value is recorded as “+4.3%”, the “% T/C mass” value was found to be 8.3%, the “Day of Nadir” value came out at 9 days and the “Drug Deaths” value is on record as 0/5. In addition, in data set [2] (setting [10]), the “Growth Delay” value is 16.5 days, the “Log Kill” value was found to be 2.5, the “Median Tumor Mass on Day 14 (Range)” value is 126 and the “Tumor Free day-37” value is on record as 0/5. Besides, in data set [2] (setting [10]), the toxicity observations entry is given as “no evident toxicity”. Also, in data set [2] (setting [11]), the “% Body Wt Loss at Nadir” value is “+3.3%”, the “% T/C mass” value is recorded as 15%, the “Activity Rating” value is on record as “+++ (2.0–2.8)” and the “Day of Nadir” value is 10 days. Moreover, in data set [2] (setting [11]), the “Drug Deaths” value is given as 0/5, the “Growth Delay” value came out at 14.5 days, the “Log Kill” value is 2.2 and the “Median Tumor Mass on Day 14 (Range)” value is recorded as 234. In addition, the “Tumor Free day-37” value in data set [2] (setting [11]) is 0/5. For the same molecule, in data set [2] (setting [12]), the “% Body Wt Loss at Nadir” value was 0%, the “% T/C mass” value was determined as 37%, the “Day of Nadir” value stood at 9 days and the “Drug Deaths” value was 0/5. In data set [2] (setting [12]), the “Growth Delay” value was 3.5 days, the “Log Kill” value is reported as 0.5, the “Median Tumor Mass on Day 14 (Range)” value was 567 and the “Tumor Free day-37” value was 0/5.
As for `COc1c(Cl)ccc2ccc(Oc3ccc(OC(C)C(=O)O)cc3)nc12` (stereo not drawn) [Compound 13a, reference compound], in data set [1] (setting [13]), the T/C was 7% and the log kill is on record as 1.5.
Take `CC(Oc1ccc(Oc2ccc3ccc(Br)cc3n2)cc1)C(=O)NCCS(=O)(=O)[O-].[Na+]` (stereo not drawn) [Compound 14g, Sodium (2-(4-(7-bromo-2-quinolinyl)oxy)phenoxy)propionylamino ethanesulfonate]: in data set [3], the “Day of Wt. Loss Nadir” value worked out at 4 days, the “Drug Death (day of death)” value was 0/6, the “Log Cell Kill” value was 0.9 and the “Mean Body Wt. Loss in g/mouse” value was −2.3 g/mouse. Besides, in data set [3], the “Median Tumor Burden in mg on d 9 (range)” value amounted to 230 mg, the “T-C” value came out at 3.5 days, the T/C % was found to be 14% and the “Time to 1,000 mg in days (range)” value came out at 11.5 days. Besides, in data set [3], the “day of full body weight recovery” value is at most 10 days. In data set [3] (listed as 14g (Racemic)), the “Percent Body Weight Loss” value is recorded as −11.0% and the “Tumor Free on d 161” value is listed as 1/6. Besides, in data set [3] (listed as 14g Racemic), the “Comments (activity rating)” value was “+ (0.7–1.2)”, the “Percent Body Weight Loss” value is given as 11% and the “Tumor Free on d 161” value is “One animal remained tumor free”. Besides, in data set [3] (listed as 14g racemic), the “Percent Body Weight Loss” value is −11% and the “Tumor Free on d 161” value was “⅕”.
For `CC(Oc1ccc(Oc2cnc3ccc(Cl)cc3n2)cc1)C(N)=O` (stereo not drawn) [Compound 14a], in data set [4] (Cage 5, total 1,320 mg/kg), the “Day of Wt. Loss Nadir” value was found to be 8 days, the “Drug Deaths (days of death)” value is recorded as 0/5, the “Log Kill” value is 1.9 and the “Mean Body Wt. Loss in g/mouse” value is reported as −0.8 g/mouse. In data set [4] (Cage 5, total 1,320 mg/kg), the “Median tumor burden in mg on day 14 (range)” value worked out at 126 mg, the “Percent Body Wt. Loss” value is given as −3.6%, the “T-C” value came to 12 days and the T/C % is 7.3%. Moreover, in data set [4] (Cage 5, total 1,320 mg/kg), the “Time to 1000 mg days (range)” value was determined as 23 days, the “Tumor Free on day 21” value was 0/5 and the toxicity observations result is “Toxicity was not reached”. In data set [4] (Cage 6, total 660 mg/kg), the “Day of Wt. Loss Nadir” value came to 5 days, the “Drug Deaths (days of death)” value is reported as 0/5, the “Log Kill” value is given as 0.7 and the “Mean Body Wt. Loss in g/mouse” value is −0.4 g/mouse. Moreover, in data set [4] (Cage 6, total 660 mg/kg), the “Median tumor burden in mg on day 14 (range)” value is 695 mg, the “Percent Body Wt. Loss” value is listed as −1.8%, the “T-C” value turned out to be 4.5 days and the T/C % is on record as 40%. Besides, in data set [4] (Cage 6, total 660 mg/kg), the “Time to 1000 mg days (range)” value stood at 15.5 days and the “Tumor Free on day 21” value was 0/5. Moreover, in data set [4] (Cage 7, total 330 mg/kg), the “Day of Wt. Loss Nadir” value amounted to 6 days; the “Drug Deaths (days of death)” value was “no lethality and 0/5”; the “Log Kill” value is 0.3; the “Median tumor burden in mg on day 14 (range)” value is 1273 mg. Also, in data set [4] (Cage 7, total 330 mg/kg), the “T-C” value came to 2 days, the T/C % was determined as 74%, the “Time to 1000 mg days (range)” value was 13 days and the “Tumor Free on day 21” value is listed as 0/5.
For the molecule `CC(Oc1ccc(Oc2cnc3ccc(Cl)cc3n2)cc1)C(=O)NCCS(=O)(=O)[O-].[Na+]` (stereo not drawn) [Compound 14f, Sodium (2-(4-(7-chloro-2-quinoxalinyl)oxy)phenoxy)propionylamino ethanesulfonate], in data set [5] (setting [14]), the “Drug Death (day of death)” value is on record as 0/5, the “Log Cell Kill” value is reported as 1.67, the “Median Tumor Burden in mg on d17 (range)” value came to 126 mg and the “T-C” value came to 10.0 days. Moreover, in data set [5] (setting [14]), the T/C % is 10%, the “Time to 1000 mg in days (range)” value stood at 26 days and the “Tumor Free on d35” value is given as 0/5. Moreover, in data set [5] (setting [15]), the “Comments (activity rating)” value is recorded as “Inactive”, the “Drug Death (day of death)” value is reported as 0/5, the “Log Cell Kill” value turned out to be 0.58 and the “Median Tumor Burden in mg on d17 (range)” value was found to be 600 mg. In data set [5] (setting [15]), the “T-C” value was determined as 3.5 days, the T/C % was found to be 50%, the “Time to 1000 mg in days (range)” value is 19.5 days and the “Tumor Free on d35” value is 0/5. Besides, in data set [5] (setting [16]), the “Comments (activity rating)” value is listed as “Inactive”, the “Drug Death (day of death)” value is listed as 0/5, the “Log Cell Kill” value turned out to be 0.0 and the “Median Tumor Burden in mg on d17 (range)” value was 1420 mg. In addition, in data set [5] (setting [16]), the “T-C” value turned out to be 0.0 days, the T/C % is listed as over 100%, the “Time to 1000 mg in days (range)” value is 16 days and the “Tumor Free on d35” value was 0/5. Besides, in data set [5] (mouse, in vivo), the “Day of Wt. Loss Nadir” value was found to be 11 days.
As to `CC(Oc1ccc(Oc2cnc3ccc(Cl)cc3n2)cc1)C(=O)NCCS(=O)(=O)[O-].[Na+]` [Compound 14f (S)], in the data set with Human Melanoma LOX, the “Comments (activity rating)” value was “Inactive”, the “Drug Death (day of death)” value is listed as 0/5, the “Log Cell Kill” value turned out to be 0.3 and the “Median Tumor Burden in mg on d 9 (range)” value was 994 mg. Besides, in the data set with Human Melanoma LOX, the “T-C” value amounted to 1.0 days, the T/C % amounted to 71%, the “Time to 1000 mg days (range)” value was 9.0 days and the “Tumor Free on d 18” value was 0/5.
For the molecule `CC(Oc1ccc(Oc2ccc3ccc(Cl)cc3n2)cc1)C(=O)O` (stereo not drawn) [Compound 11b], in data set [2] (setting [17]), the “% Body Wt Loss at Nadir” value is recorded as −8.9%, the “% T/C mass” value turned out to be 0%, the “Activity Rating” value was “+++ (2.0–2.8)” and the “Day of Nadir” value is 11 days. Moreover, in data set [2] (setting [17]), the “Drug Deaths” value is 0/5, the “Growth Delay” value was determined as 17.5 days, the “Log Kill” value was 2.6 and the “Median Tumor Mass on Day 14 (Range)” value is 0. Also, in data set [2] (setting [17]), the “Tumor Free day-37” value is 0/5 and the “day of full body weight recovery” value is about 15 days.
